Reference: US20130156832A1, “EUDERMIC COMPOSITIONS” (Miso S.r.I., priority 2010, published 2013)

Test: Saturation concentration (solubility) of salicylic acid in vehicle A (water)
Format: physicochemical

## O=C(O)c1ccccc1O [salicylic acid]
  saturation concentration (Cs, SA-A): 2 mg/mL
